Source: ChEMBL document CHEMBL1828496 (Eur J Med Chem, 2011)

Experiments:
[1] = biological target: T1, Amine oxidase [flavin-containing] A (Homo sapiens, UniProt P21397); assay: Inhibition of human recombinant MAO-A expressed in baculovirus infected BTI-TN-5B1-4 cells assessed as production of hydrogen peroxide from p-tyramine at 100 uM after 15 mins by microplate fluorescence assay; conditions: for inhibition (INH): human, bti-tn-5b1-4, 0.25 h, 100 µM; for inhibition at 100 µM: BTI-TN-5B1-4, human, 0.25 h
T1 sequence (P21397 whole entry): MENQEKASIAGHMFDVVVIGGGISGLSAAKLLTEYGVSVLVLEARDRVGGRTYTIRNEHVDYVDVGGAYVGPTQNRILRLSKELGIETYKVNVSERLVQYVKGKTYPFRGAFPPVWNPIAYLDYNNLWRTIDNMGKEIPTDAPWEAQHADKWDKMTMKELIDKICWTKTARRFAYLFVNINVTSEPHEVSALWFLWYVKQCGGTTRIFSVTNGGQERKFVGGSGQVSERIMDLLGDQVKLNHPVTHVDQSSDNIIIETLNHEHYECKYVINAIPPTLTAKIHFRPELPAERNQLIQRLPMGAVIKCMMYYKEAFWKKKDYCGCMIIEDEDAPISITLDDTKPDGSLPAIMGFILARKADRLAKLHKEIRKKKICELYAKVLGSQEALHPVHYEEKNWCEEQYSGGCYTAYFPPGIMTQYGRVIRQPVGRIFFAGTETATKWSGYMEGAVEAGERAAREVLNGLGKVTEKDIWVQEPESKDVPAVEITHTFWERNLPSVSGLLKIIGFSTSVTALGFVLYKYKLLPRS

Homo sapiens = species on record: Homo sapiens; assay: Selectivity ratio of IC50 for human recombinant MAO-A to IC50 for human recombinant MAO-B
[2] = biological target: T2, Amine oxidase [flavin-containing] B (Homo sapiens, UniProt P27338); assay: biochemical; type: cell-based, BTI-TN-5B1-4
T2 sequence (P27338 whole entry): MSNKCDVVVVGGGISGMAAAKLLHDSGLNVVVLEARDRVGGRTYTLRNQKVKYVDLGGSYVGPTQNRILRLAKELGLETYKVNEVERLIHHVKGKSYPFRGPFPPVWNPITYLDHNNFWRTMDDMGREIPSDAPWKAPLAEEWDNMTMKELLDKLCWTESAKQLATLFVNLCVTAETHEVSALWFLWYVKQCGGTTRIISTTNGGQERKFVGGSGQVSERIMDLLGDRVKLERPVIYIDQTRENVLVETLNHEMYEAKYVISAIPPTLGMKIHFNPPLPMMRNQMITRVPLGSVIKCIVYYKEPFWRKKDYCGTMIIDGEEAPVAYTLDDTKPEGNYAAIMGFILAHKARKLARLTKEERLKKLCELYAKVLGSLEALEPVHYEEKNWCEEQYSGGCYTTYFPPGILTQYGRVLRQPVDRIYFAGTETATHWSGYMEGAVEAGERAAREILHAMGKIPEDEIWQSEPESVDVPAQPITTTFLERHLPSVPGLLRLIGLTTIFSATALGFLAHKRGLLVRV
Description: Inhibition of human recombinant MAO-B expressed in baculovirus infected BTI-TN-5B1-4 cells assessed as production of hydrogen peroxide from p-tyramine after 15 mins by microplate fluorescence assay

[3] = biological target: T2, Amine oxidase [flavin-containing] B; assay: Inhibition of human recombinant MAO-B expressed in baculovirus infected BTI-TN-5B1-4 cells assessed as production of hydrogen peroxide from p-tyramine at 100 uM after 15 mins by microplate fluorescence assay; conditions: for inhibition (INH): human, bti-tn-5b1-4, 0.25 h, 100 µM; for inhibition at 100 µM: BTI-TN-5B1-4, human, 0.25 h
[4] = biological target: T1, Amine oxidase [flavin-containing] A; assay: Inhibition of human recombinant MAO-A expressed in baculovirus infected BTI-TN-5B1-4 cells assessed as production of hydrogen peroxide from p-tyramine after 15 mins by microplate fluorescence assay

Structure (SMILES) | inhibition (INH) [1] | Ratio IC50 (Homo sapiens) | IC50 [2] | inhibition (INH) [3] | inhibition at 100 µM [3] | IC50 [4] | inhibition at 100 µM [1]
CCOC(=O)c1cc2ccc(N(CC)CC)cc2oc1=O | Not Active | > 2.2 | 45.5 µM |  |  |  | 
COc1ccc2oc(=O)c(C(=O)O)cc2c1 | Not Active |  |  | Not Active |  |  | 
O=C(O)c1cc2ccc(OCc3ccc(Cl)c(Cl)c3)cc2oc1=O | Not Active | > 244 | 0.41 µM |  |  |  | 
O=C(c1ccccc1)c1cc2cc(Cl)cc(Br)c2oc1=O | Not Active |  |  |  | 40% |  | 
O=C(c1ccccc1)c1cc2cc(Br)cc(Br)c2oc1=O | Not Active |  |  |  | 40% |  | 
CCOC(=O)c1cc2cc(Cl)cc(Br)c2oc1=O | Not Active | > 5.7 | 17.5 µM |  |  |  | 
O=C(NNc1ccc(Cl)cc1)c1cc2ccccc2oc1=O |  | 40.4 | 1.19 µM |  |  | 48 µM | 
CCOC(=O)c1cc2ccc(OC)cc2oc1=O |  | > 4.3 | 23.5 µM |  |  |  | 40%
CCOC(=O)c1cc2cc(Br)cc(Br)c2oc1=O | Not Active |  |  |  | 40% |  | 
O=C(O)c1cc2cc(Br)cc(Br)c2oc1=O | Not Active |  |  | Not Active |  |  | 
CCOC(=O)c1cc2ccc(O)cc2oc1=O | Not Active |  |  | Not Active |  |  | 
O=C(c1ccccc1)c1cc2cc(Br)ccc2oc1=O | Not Active |  |  | Not Active |  |  | 
O=C(c1ccccc1)c1cc2cccc(O)c2oc1=O |  | 1.5 | 27.1 µM |  |  | 40.5 µM | 
O=C(O)c1cc2ccc(OC3CCCCCC3)cc2oc1=O | Not Active | > 11.6 | 8.62 µM |  |  |  | 
O=C(O)c1cc2cccc(O)c2oc1=O |  | < 0.6 |  |  | 40% | 59.6 µM | 
O=C(NNc1ccc([N+](=O)[O-])cc1[N+](=O)[O-])c1cc2ccccc2oc1=O |  | 1.08 | 56.1 µM |  |  | 60.5 µM | 
O=C(O)c1cc2cc(Cl)cc(Br)c2oc1=O | Not Active |  |  | Not Active |  |  | 
CC(=O)c1cc2cc(Br)ccc2oc1=O |  | < 0.52 |  |  | 40% | 51.6 µM | 
Cc1ccc2oc(=O)c(C(=O)c3ccccc3)cc2c1 | Not Active |  |  |  | 40% |  | 
COc1ccc2cc(C(=O)O)c(=O)oc2c1 | Not Active |  |  |  | 40% |  | 
CC(=O)c1cc2cc(Br)cc(Br)c2oc1=O | Not Active | > 500 | 0.2 µM |  |  |  | 
CC(=O)c1cc2cc(I)cc(I)c2oc1=O | Not Active |  |  | Not Active |  |  | 
O=C(O)c1cc2cc(I)cc(I)c2oc1=O | Not Active | > 5.6 | 17.8 µM |  |  |  | 
CC(=O)c1cc2ccc(O)cc2oc1=O | Not Active |  |  | Not Active |  |  | 

Structure (SMILES) | inhibition (INH) [1] | Ratio IC50 (Homo sapiens) | IC50 [2] | inhibition (INH) [3] | inhibition at 100 µM [3] | IC50 [4] | inhibition at 100 µM [1]
COc1ccc2cc(C(C)=O)c(=O)oc2c1 |  | > 6.5 | 15.4 µM |  |  |  | 40%
CC(=O)c1cc2ccccc2oc1=O [3-ACETYLCOUMARIN] | Not Active | > 6.9 | 14.5 µM |  |  |  | 
CCN(CC)c1ccc2cc(C(C)=O)c(=O)oc2c1 | Not Active | > 5.5 | 18.1 µM |  |  |  | 
CCOC(=O)c1cc2cc(O)ccc2oc1=O |  | 4.9 | 10.1 µM |  |  | 49.1 µM | 
O=C(NNc1ccccc1[N+](=O)[O-])c1cc2ccccc2oc1=O |  | < 0.39 |  | Not Active |  | 39.6 µM | 
O=C(O)c1cc2ccc(OCc3cccc(Cl)c3)cc2oc1=O | Not Active | > 55 | 1.8 µM |  |  |  | 
COc1ccc2cc(C(=O)c3ccccc3)c(=O)oc2c1 | Not Active |  |  |  | 40% |  | 
CCOC(=O)c1cc2cccc(O)c2oc1=O |  | 2.7 | 14.8 µM |  |  | 40.5 µM | 
Cc1ccc(NNC(=O)c2cc3ccccc3oc2=O)cc1 |  | < 0.58 |  | Not Active |  | 58.4 µM | 
CC(=O)c1cc2c(ccc3ccccc32)oc1=O |  | > 50 | 2.01 µM |  |  |  | 40%
CC(=O)c1cc2cc(Cl)cc(Br)c2oc1=O |  | 394 | 0.14 µM |  |  | 55.2 µM | 
O=C(c1ccccc1)c1cc2ccccc2oc1=O | Not Active |  |  | Not Active |  |  | 
O=C(c1ccccc1)c1cc2cc(I)cc(I)c2oc1=O | Not Active |  |  | Not Active |  |  | 
CC(=O)c1cc2cc(Cl)ccc2oc1=O | Not Active | > 5.6 | 17.7 µM |  |  |  | 
CC(=O)c1cc2cc(O)ccc2oc1=O |  | > 1.6 | 64.2 µM |  |  |  | 40%
CC(C)(C)c1ccc(COc2ccc3cc(C(=O)O)c(=O)oc3c2)cc1 | Not Active |  |  | Not Active |  |  | 
O=C(c1ccccc1)c1cc2cc(Cl)ccc2oc1=O | Not Active |  |  | Not Active |  |  | 
CC(=O)c1cc2cccc(O)c2oc1=O |  | 0.93 | 42.1 µM |  |  | 39.4 µM | 
O=C(c1ccccc1)c1cc2c(ccc3ccccc32)oc1=O | Not Active |  |  | Not Active |  |  | 
CC(=O)c1cc2cc(C)ccc2oc1=O | Not Active |  |  |  | 40% |  | 
O=C(c1ccccc1)c1cc2cc(O)ccc2oc1=O |  | 2.9 | 18 µM |  |  | 51.7 µM | 
O=C(O)c1cc2cc(O)ccc2oc1=O |  | < 0.4 |  |  | 40% | 40.2 µM | 
CCN(CC)c1ccc2cc(C(=O)c3ccccc3)c(=O)oc2c1 | Not Active | > 4.2 | 23.8 µM |  |  |  | 
O=C(c1ccccc1)c1cc2ccc(O)cc2oc1=O | Not Active |  |  | Not Active |  |  | 
